Source: US5208032A, “Increasing the growth of turkeys using implant of 19-nortestosterone” (Rutgers, The State University of New Jersey, priority 1992, dated 1993)

Columns and labels:
[1] = Comparison of effect on growth in castrated male White Leghorn chickens (Study IV, Table II); assay type: in vivo
Description: (§1) The single comb White Leghorn strain (Dekalb XL) of chicken (Avian Services, Frenchtown, N.J.) was used in all studies. Chicks were obtained on the day following hatch and were then maintained in a well ventilated, temperature- and humidity-controlled animal room. Chicks were housed in temperature-controlled (access to small brood chambers--32° to 35° C.), wire-floored, 5-tier brooder batteries (measuring 0.74 W×1.55 L×0.27 H m per tier) until termination of respective studies. A 12 hour light:12 hour dark photoperiod was maintained at all times within the animal room. Feed and water were available ad libitum, with a standard commercial diet (Agway; Bordentown, N.J.), chick starter mash, fed to chicks 1 to 42 days of age, and then from 43 to 84 days, grower mash was provided (manufacturer statement on ration compositions are shown in Table 2).
(§2) Excluding Study II, chicks were either castrated (Quigley, 1967) or sham-operated at 13 days of age. Prior to castration, cockerels were deprived of feed and water for 24 hours in order that the intestines may become empty and thus permit better vision into the body cavity and accessibility to testes. Birds were restrained by fastening the wings and legs with leather straps so that sufficient tension was applied to hold the bird well stretched out in a lateral recumbency (on its left side). Next, an approximate 1 inch incision was made midway between the last two ribs and a small rib spreader inserted to hold the ribs about 1/2 inch apart.
(§3) Forceps were used to remove both testicles, with the lower or left testicle removed first. The forceps were carefully worked over the testicle and so manipulated as to enclose the entire organ. It was then drawn out with a slight twisting motion. At this step, care was taken not to rupture any of the primary blood vessels. When the rib spreader was removed, and the tension on the bird released (i.e., leg and wing straps removed), the skin and thigh muscles slipped back over the incision thus affording a natural protection. No special care was necessary for surgically manipulated birds other than to puncture "air pockets" which developed under the skin due to air escaping from within the abdominal cavity before the incision between the ribs was healed.
(§4) In all studies, chicks were rank-ordered by weight, wing-banded and distributed into treatment groups of equal body weights at 14 days of age. Excluding Study I, e.g., in which male, female and castrate male comparisons were made, all control groups were implanted with 1.0-cm length cholesterol-filled Silastic polysiloxane implants (i.e., steroid surface exposure of 1.0-cm; actual length was 2.0-cm with 1/2 cm wood dowel plugs placed at each end of implant). The remaining treatment groups consisted of chicks (male, female or castrated male) implanted with either testosterone-, 5-alpha-DHT-, 5-beta-DHT-, estradiol-17-beta-, or 19-nortestosterone-filled Silastic polysiloxane implants with steriod surface exposures of either 0.3, 1.0 or 3.0 cm in length. Steroid implants were prepared by manually packing respective crystalline steroids (Steraloids; Wilton, N.H.) into Silastic Medical Grade tubing (1.57 mm i.d.; Dow Corning) (Smith et al., 1977). The amounts of steroid contained in the implants were as follows (mean±SEM of 20 randomly chosen implants, 5 for each steroid): 2.6±0.2 mg (0.3-cm), 8.9±0.4 mg (1.0-cm), and 29.2±0.7 mg 3.0-cm). At the time of group assignment, implants were placed in the subcutaneous (S.C.) layer of skin behind the neck. Supplemental steroid implants (containing doses of steroids equivalent to those of the initial implants) were implanted at 6 and 10 weeks of age, without removal of prior implants, to ensure adequate androgen replacement with increasing growth. Cage floors and fecal collection trays were checked for 2 consecutive days following each implantation session to ensure completeness of procedure. […]

[2] = Comparison of effect of 19-nortestosterone and 5-alpha-DHT on growth in castrated male White Leghorn chickens (Study V, Table III); assay type: in vivo; conditions: for Abdominal Adipose / Final Shank-toe Length / Right Breast Muscle: 6 weeks; for Abdominal Adipose Change / Final 6-week Body Wt. Change / Final Shank-toe Length Change / Right Breast Muscle Change: given unsigned (decrease vs cholesterol); for Final 6-week Body Wt.: minus comb + wattle weight
Description: as §1, §2, §3, §4

[3] = system: 5-alpha-DHT anti-serum; assay: Radioimmunoassay for 5-alpha-DHT: antiserum reaction and inhibition of binding; conditions: standard curve
Description: The following will briefly outline the procedure used for determination of plasma concentration of 5-alpha-DHT. The 5-alpha-DHT anti-serum (Ford's-F/1) was kindly provided by Dr. Alan L. Johnson, Rutgers University, New Brunswick, N.J. This antibody reacted 100% to 5-alpha-DHT,7.9% to testosterone and 11.4% to androstenedione. The antibody was diluted to 1:20,000 in PBSG and stored at 4° C. until added to assay that same day.
5-alpha-Dihydrotestosterone was extracted from plasma ([…]) using benzene:toluene (2:1), with an extraction efficiency of 83.4±6.4 (SD) %. Since further purification of the crude sample extract (i.e., by column chromatography) was not performed, it became necessary to also add extracts from steroid free plasma (i.e., stripped by dextran-coated charcoal) to the standard curve tubes prior to the addition of the different doses of the standard 5-alpha-DHT solutions (3.125 to 1600 pg). […] Following the drying process (Savant-high speed concentrator), 200 microliters 5-alpha-DHT anti-serum solution wwere added to each standard or unknown. After brief vortex mixing, 200 microliters of [1,2,3,7^-3 H] 5-alpha-DHT (^~ 10,000 cpm) was added to each tube and the mixture allowed to incubate overnight at 4° C. The antibody-hormone-bound fraction was separated from the non-bound fraction using a charcoal-dextran suspension. Radioactivity of the bound fraction was measured using a liquid scintillation counter. The percentage bound of the standards was plotted against the log of the hormone concentration to yield a standard curve. Potency estimates of the unknowns were calculated from this standard curve.
Sensitivity of the assay was less than 50.0 pg/ml, while the mean within-assay CV for the low (37.7 pg/ml for plasma stripped and pooled from 3 adult male White Leghorn chickens) and high (265 pg/ml for plasma pooled and not stripped from 3 adult male White Leghorn chickens) plasma pools (n=5) wwas less than 9.4%. The mean between-assay CV for the low and high plasma pools was less than 12.9% (n=7).

[4] = system: testosterone antiserum; conditions: manufacturer statement; cited from earlier work
[5] = 0.3-cm implant, given unsigned (decrease vs cholesterol)
[6] = 1.0-cm implant, given unsigned (decrease vs cholesterol)
[7] = 3.0-cm implant, given unsigned (decrease vs cholesterol)
[8] = 0.1-cm implant (so in the source)

Structure (SMILES): C[C@]12CCC(=O)C[C@@H]1CC[C@@H]1[C@@H]2CC[C@]2(C)[C@@H](O)CC[C@@H]12 [5-alpha-DHT, 5-alpha-dihydrotestosterone]
- 6-week Body Wt. ([1]; 0.3-cm implant): 515 ± 10 g
- 12-week Body Wt. ([1]; 0.3-cm implant): 1191 ± 26 g
- Adipose Abdominal ([1]; 0.3-cm implant): 10 ± 2 g
- Final 12-week Shank-toe Length ([1]; 0.3-cm implant): 16.4 ± 0.10 cm
- Right Breast Muscle ([1]; 0.3-cm implant): 57 ± 2 g
- 12-week Body Wt. Change [1, 5]: 6.9%
- Adipose Abdominal Change [1, 5]: 58.3%
- Final 12-week Shank-toe Length Change [1, 5]: 3.5%
- Right Breast Muscle Change [1, 5]: 10.9%
- 6-week Body Wt. ([1]; 1.0-cm implant): 485 ± 12 g
- 12-week Body Wt. ([1]; 1.0-cm implant): 1140 ± 39 g
- Adipose Abdominal ([1]; 1.0-cm implant): 6 ± 1 g
- Final 12-week Shank-toe Length ([1]; 1.0-cm implant): 16.1 ± 0.24 cm
- Right Breast Muscle ([1]; 1.0-cm implant): 51 ± 3 g
- 12-week Body Wt. Change [1, 6]: 10.9%
- Adipose Abdominal Change [1, 6]: 75.0%
- Final 12-week Shank-toe Length Change [1, 6]: 5.3%
- Right Breast Muscle Change [1, 6]: 15.6%
- 6-week Body Wt. ([1]; 3.0-cm implant): 415 ± 15 g
- 12-week Body Wt. ([1]; 3.0-cm implant): 872 ± 53 g
- Adipose Abdominal ([1]; 3.0-cm implant): 0.5 ± 0.2 g
- Final 12-week Shank-toe Length ([1]; 3.0-cm implant): 13.7 ± 0.34 cm
- Right Breast Muscle ([1]; 3.0-cm implant): 36 ± 3 g
- 6-week Body Wt. Change [1, 7]: 19.1%
- 12-week Body Wt. Change [1, 7]: 31%
- Adipose Abdominal Change [1, 7]: 97.9%
- Final 12-week Shank-toe Length Change [1, 7]: 19.4%
- Right Breast Muscle Change [1, 7]: 43.8%
- Abdominal Adipose ([2]; 1.0-cm implant): 2.05 ± 0.12 g
- Final Shank-toe Length ([2]; 1.0-cm implant): 11.4 ± 0.07 cm
- Right Breast Muscle ([2]; 1.0-cm implant): 16.3 ± 0.67 g
- Abdominal Adipose Change ([2]; 1.0-cm implant): 33%
- Final 6-week Body Wt. Change ([2]; 1.0-cm implant): 8.6%
- Final Shank-toe Length Change ([2]; 1.0-cm implant): 4.2%
- Right Breast Muscle Change ([2]; 1.0-cm implant): 17.7%
- Final 6-week Body Wt. ([2]; 1.0-cm implant): 422 ± 10 g
- 80 percent inhibition of binding ([3]; n=7): 321.4±31.9 pg/tube
- Twenty percent inhibition of binding ([3]; n=7): 16.9±2.1 pg/tube
- 50 percent inhibition of binding ([3]; n=7, 3.125 to 1600 pg): 67.4±8.2 pg/tube
- cross-reaction with Immuchem testosterone antiserum [4]: 7.8%

Structure (SMILES): C[C@]12CC[C@H]3[C@@H](CCC4=CC(=O)CC[C@@H]43)[C@@H]1CC[C@@H]2O [19-Nortestosterone, 19-nortestosterone]
- Abdominal Adipose ([2]; 0.3-cm implant): 1.26 ± 0.19 g
- Final Shank-toe Length ([2]; 0.3-cm implant): 10.8 ± 0.13 cm
- Right Breast Muscle ([2]; 0.3-cm implant): 13.9 ± 1.1 g
- Abdominal Adipose Change ([2]; 0.3-cm implant): 58%
- Final 6-week Body Wt. Change ([2]; 0.3-cm implant): 16.9%
- Final Shank-toe Length Change ([2]; 0.3-cm implant): 9.2%
- Right Breast Muscle Change ([2]; 0.3-cm implant): 29.8%
- Final 6-week Body Wt. ([2]; 0.3-cm implant): 384 ± 18 g
- Abdominal Adipose ([2]; 1.0-cm implant): 0.26 ± 0.08 g
- Final Shank-toe Length ([2]; 1.0-cm implant): 10.2 ± 0.12 cm
- Right Breast Muscle ([2]; 1.0-cm implant): 13.2 ± 0.87 g
- Abdominal Adipose Change ([2]; 1.0-cm implant): 91%
- Final 6-week Body Wt. Change ([2]; 1.0-cm implant): 24.0%
- Final Shank-toe Length Change ([2]; 1.0-cm implant): 14.3%
- Right Breast Muscle Change ([2]; 1.0-cm implant): 33.3%
- Final 6-week Body Wt. ([2]; 1.0-cm implant): 351 ± 13 g
- Abdominal Adipose ([2]; 3.0-cm implant): 0.58 ± 0.12 g
- Final Shank-toe Length ([2]; 3.0-cm implant): 9.8 ± 0.17 cm
- Right Breast Muscle ([2]; 3.0-cm implant): 12.0 ± 0.96 g
- Abdominal Adipose Change ([2]; 3.0-cm implant): 81%
- Final 6-week Body Wt. Change ([2]; 3.0-cm implant): 24.5%
- Final Shank-toe Length Change ([2]; 3.0-cm implant): 17.6%
- Right Breast Muscle Change ([2]; 3.0-cm implant): 39.4%
- Final 6-week Body Wt. ([2]; 3.0-cm implant): 349 ± 19 g

Structure (SMILES): C[C@]12CC[C@H]3[C@@H](CCC4=CC(=O)CC[C@@]43C)[C@@H]1CC[C@@H]2O [Testosterone, testosterone]
- 6-week Body Wt. [1, 8]: 503 ± 10 g
- 12-week Body Wt. [1, 8]: 1287 ± 25 g
- Adipose Abdominal [1, 8]: 15 ± 3 g
- Final 12-week Shank-toe Length [1, 8]: 16.9 ± 0.14 cm
- Right Breast Muscle [1, 8]: 61 ± 2 g
- Adipose Abdominal Change ([1]; 0.1-cm implant (so in the source), given unsigned (decrease vs cholesterol)): 37.5%
- 6-week Body Wt. ([1]; 0.3-cm implant): 501 ± 13 g
- 12-week Body Wt. ([1]; 0.3-cm implant): 1262 ± 35 g
- Adipose Abdominal ([1]; 0.3-cm implant): 16 ± 2 g
- Final 12-week Shank-toe Length ([1]; 0.3-cm implant): 17.0 ± 0.16 cm
- Right Breast Muscle ([1]; 0.3-cm implant): 61 ± 2 g
- Adipose Abdominal Change [1, 5]: 33.3%
- 6-week Body Wt. ([1]; 3.0-cm implant): 505 ± 13 g
- 12-week Body Wt. ([1]; 3.0-cm implant): 1207 ± 25 g
- Adipose Abdominal ([1]; 3.0-cm implant): 10 ± 3 g
- Final 12-week Shank-toe Length ([1]; 3.0-cm implant): 16.4 ± 0.16 cm
- Right Breast Muscle ([1]; 3.0-cm implant): 55 ± 2 g
- 12-week Body Wt. Change [1, 7]: 5.6%
- Adipose Abdominal Change [1, 7]: 58.3%
- Final 12-week Shank-toe Length Change [1, 7]: 3.5%
- Right Breast Muscle Change [1, 7]: 14.1%
- cross-reaction with Immuchem testosterone antiserum [4]: 100%
